Data reported in publication PMC3207004 (Clinical cancer research : an official journal of the …, 2011).
“Also recorded” adds a separate entry of the source.

Experiments:
[1] = test system: advanced solid tumors and lymphomas; test: Assessment of response; type: in vivo, human
[2] = Plasma pharmacokinetics of PF-04928473 after oral PF-04929113; type: in vivo, human; details: patients
[3] = test system: Hsp70 levels in peripheral blood mononuclear cells (PBMCs); test: Hsp70 induction in peripheral blood by western blot; type: in vivo, human
[4] = Continuous EKG monitoring, corrected QT interval; type: in vivo, human; details: days 1 and 15 of cycle 1
[5] = Comprehensive ophthalmologic evaluation of patients on study; type: in vivo, human
[6] = human, in vivo
[7] = no reference given, cited from earlier work
[8] = cited from earlier work
[9] = cited from earlier work; remark: listed apart in the source
[10] = cited from earlier work; remark: listed apart in the source
[11] = Phase I dose-escalation study: adverse events, DLT and tolerability in patients; details: drug-related; 33 patients
[12] = 18 days after initiation of cycle 3

Compound: CC1(C)CC(=O)c2c(C(F)(F)F)nn(-c3ccc(C(N)=O)c(N[C@H]4CC[C@H](OC(=O)CN)CC4)c3)c2C1 [PF-04929113]
- Median duration of disease stabilization ([1]; 15 patients): 16 weeks
- Objective responses ([1]; 32 evaluable patients): no objective tumor responses
- Anti-tumor activity as a single-agent ([1]; twice weekly continuous dosing): modest anti-tumor activity
- Absorption following oral administration [2]: rapidly absorbed
- Dose at or above which an increase in Hsp70 levels was seen in all patients ([3]; PBMCs): ≥ 33 mg/m^2/day
- Patients with increased Hsp70 protein level at day 15 and/or day 16 ([3]; PBMCs, compared to baseline): 16 out of 19
- Relation of Hsp70 induction to PK parameters (Cmax and AUCinf of each cohort) ([3]; fold increase at 24h versus baseline): linear correlation
- Inhibition of Hsp90 in patients (PD studies) ([3]; in vivo): confirmed inhibition of Hsp90
- lowest biologically effective dose ([3]; orally twice weekly, based on PD data): 33 mg/m^2
- Level of Hsp70 induction as a function of dose ([3]; ≤ 44 vs > 44 mg/m^2/dose): greater at higher dose levels
- Effect on the corrected QT interval [4]: did not reveal any effect
- Drug-related ocular toxicity in this study ([5]; oral twice weekly): no clinically significant drug-related ocular toxicity was seen in this study
- Ocular examination findings in single patients ([5]; three patients at 77, 133 and 177 mg/m^2, after 8, 10 and 28 cycles): slightly prolonged cone-rod break in the right eye but the ERG was normal; also recorded: normal eye exam; also recorded: slightly prolonged cone-rod break in one patient
- ALT elevation, Grade 1 [6]: 5 (15) Number of patients (%)
- ALT elevation, Grade 2 [6]: 1 (3) Number of patients (%)
- ALT elevation, Grade 3 [6]: 0 Number of patients (%)
- ALT elevation, Grade 4 [6]: 0 Number of patients (%)
- AST elevation, Grade 1 [6]: 3 (9) Number of patients (%)
- AST elevation, Grade 2 [6]: 2 (6) Number of patients (%)
- AST elevation, Grade 3 [6]: 1 (3) Number of patients (%)
- AST elevation, Grade 4 [6]: 0 Number of patients (%)
- Abdominal pain, Grade 1 [6]: 1 (3) Number of patients (%)
- Abdominal pain, Grade 2 [6]: 0 Number of patients (%)
- Abdominal pain, Grade 3 [6]: 0 Number of patients (%)
- Abdominal pain, Grade 4 [6]: 0 Number of patients (%)
- Alkaline phosphatase elevation, Grade 1 [6]: 0 Number of patients (%)
- Alkaline phosphatase elevation, Grade 2 [6]: 2 (6) Number of patients (%)
- Alkaline phosphatase elevation, Grade 3 [6]: 0 Number of patients (%)
- Alkaline phosphatase elevation, Grade 4 [6]: 0 Number of patients (%)
- Anemia, Grade 1 [6]: 2 (6) Number of patients (%)
- Anemia, Grade 2 [6]: 3 (9) Number of patients (%)
- Anemia, Grade 3 [6]: 0 Number of patients (%)
- Anemia, Grade 4 [6]: 0 Number of patients (%)
- Anorexia, Grade 1 [6]: 2 (6) Number of patients (%)
- Anorexia, Grade 2 [6]: 1 (3) Number of patients (%)
- Anorexia, Grade 3 [6]: 0 Number of patients (%)
- Anorexia, Grade 4 [6]: 0 Number of patients (%)
- Arthritis (non-septic), Grade 1 [6]: 0 Number of patients (%)
- Arthritis (non-septic), Grade 2 [6]: 1 (3) Number of patients (%)
- Arthritis (non-septic), Grade 4 [6]: 0 Number of patients (%)
- Constipation, Grade 1 [6]: 1 (3) Number of patients (%)
- Constipation, Grade 2 [6]: 0 Number of patients (%)
- Constipation, Grade 3 [6]: 0 Number of patients (%)
- Constipation, Grade 4 [6]: 0 Number of patients (%)
- Cough, Grade 1 [6]: 1 (3) Number of patients (%)
- Cough, Grade 2 [6]: 0 Number of patients (%)
- Cough, Grade 3 [6]: 0 Number of patients (%)
- Cough, Grade 4 [6]: 0 Number of patients (%)
- Creatinine phosphokinase elevation, Grade 1 [6]: 1 (3) Number of patients (%)
- Creatinine phosphokinase elevation, Grade 2 [6]: 0 Number of patients (%)
- Creatinine phosphokinase elevation, Grade 3 [6]: 0 Number of patients (%)
- Creatinine phosphokinase elevation, Grade 4 [6]: 0 Number of patients (%)
- Diarrhea, Grade 1 [6]: 4 (12) Number of patients (%)
- Diarrhea, Grade 2 [6]: 0 Number of patients (%)
- Diarrhea, Grade 3 [6]: 3 (9) Number of patients (%)
- Diarrhea, Grade 4 [6]: 0 Number of patients (%)
- Dose Level at which grade 3 AST elevation occurred [6]: 77 mg/m^2
- Dose Level at which grade 3 Non-septic arthritis occurred [6]: 16 mg/m^2
- Dose Level at which grade 3 Thrombocytopenia occurred [6]: 177 mg/m^2
- Dysgeusia, Grade 1 [6]: 1 (3) Number of patients (%)
- Dysgeusia, Grade 2 [6]: 1 (3) Number of patients (%)
- Dysgeusia, Grade 3 [6]: 0 Number of patients (%)
- Dysgeusia, Grade 4 [6]: 0 Number of patients (%)
- Dyspepsia, Grade 1 [6]: 1 (3) Number of patients (%)
- Dyspepsia, Grade 2 [6]: 0 Number of patients (%)
- Dyspepsia, Grade 3 [6]: 0 Number of patients (%)
- Dyspepsia, Grade 4 [6]: 0 Number of patients (%)
- Edema, Grade 1 [6]: 0 Number of patients (%)
- Edema, Grade 2 [6]: 1 (3) Number of patients (%)
- Edema, Grade 3 [6]: 0 Number of patients (%)
- Edema, Grade 4 [6]: 0 Number of patients (%)
- Emesis, Grade 1 [6]: 2 (6) Number of patients (%)
- Emesis, Grade 2 [6]: 1 (3) Number of patients (%)
- Emesis, Grade 3 [6]: 0 Number of patients (%)
- Emesis, Grade 4 [6]: 0 Number of patients (%)
- Fatigue, Grade 1 [6]: 4 (12) Number of patients (%)
- Fatigue, Grade 2 [6]: 2 (6) Number of patients (%)
- Fatigue, Grade 3 [6]: 0 Number of patients (%)
- Fatigue, Grade 4 [6]: 0 Number of patients (%)
- Flu-like symptoms, Grade 1 [6]: 1 (3) Number of patients (%)
- Flu-like symptoms, Grade 2 [6]: 0 Number of patients (%)
- Flu-like symptoms, Grade 3 [6]: 0 Number of patients (%)
- Flu-like symptoms, Grade 4 [6]: 0 Number of patients (%)
- Hyponatremia, Grade 1 [6]: 1 (3) Number of patients (%)
- Hyponatremia, Grade 2 [6]: 0 Number of patients (%)
- Hyponatremia, Grade 3 [6]: 0 Number of patients (%)
- Hyponatremia, Grade 4 [6]: 0 Number of patients (%)
- Hypophosphatemia, Grade 1 [6]: 0 Number of patients (%)
- Hypophosphatemia, Grade 2 [6]: 1 (3) Number of patients (%)
- Hypophosphatemia, Grade 3 [6]: 0 Number of patients (%)
- Hypophosphatemia, Grade 4 [6]: 0 Number of patients (%)
- Joint pain, Grade 1 [6]: 1 (3) Number of patients (%)
- Joint pain, Grade 2 [6]: 1 (3) Number of patients (%)
- Joint pain, Grade 3 [6]: 0 Number of patients (%)
- Joint pain, Grade 4 [6]: 0 Number of patients (%)
- Leukopenia, Grade 1 [6]: 2 (6) Number of patients (%)
- Leukopenia, Grade 2 [6]: 0 Number of patients (%)
- Leukopenia, Grade 3 [6]: 0 Number of patients (%)
- Leukopenia, Grade 4 [6]: 0 Number of patients (%)
- Lymphopenia, Grade 1 [6]: 2 (6) Number of patients (%)
- Lymphopenia, Grade 2 [6]: 6 (18) Number of patients (%)
- Lymphopenia, Grade 3 [6]: 0 Number of patients (%)
- Lymphopenia, Grade 4 [6]: 0 Number of patients (%)
- Muscle pain, Grade 1 [6]: 0 Number of patients (%)
- Muscle pain, Grade 2 [6]: 1 (3) Number of patients (%)
- Muscle pain, Grade 3 [6]: 0 Number of patients (%)
- Muscle pain, Grade 4 [6]: 0 Number of patients (%)
- Nausea, Grade 1 [6]: 8 (24) Number of patients (%)
- Nausea, Grade 2 [6]: 1 (3) Number of patients (%)
- Nausea, Grade 3 [6]: 0 Number of patients (%)
- Nausea, Grade 4 [6]: 0 Number of patients (%)
- Neutropenia, Grade 1 [6]: 1 (3) Number of patients (%)
- Neutropenia, Grade 2 [6]: 0 Number of patients (%)
- Neutropenia, Grade 3 [6]: 0 Number of patients (%)
- Neutropenia, Grade 4 [6]: 0 Number of patients (%)
- Thrombocytopenia, Grade 1 [6]: 4 (12) Number of patients (%)
- Thrombocytopenia, Grade 2 [6]: 0 Number of patients (%)
- Thrombocytopenia, Grade 3 [6]: 1 (3) Number of patients (%)
- Thrombocytopenia, Grade 4 [6]: 0 Number of patients (%)
- Weight loss, Grade 1 [6]: 1 (3) Number of patients (%)
- Weight loss, Grade 2 [6]: 0 Number of patients (%)
- Weight loss, Grade 3 [6]: 0 Number of patients (%)
- Weight loss, Grade 4 [6]: 0 Number of patients (%)
- grade 3 AEs: AST elevation [6]: 3%
- grade 3 AEs: diarrhea [6]: 9%
- grade 3 AEs: non-septic arthritis [6]: 3%
- grade 3 AEs: thrombocytopenia [6]: 3%
- Arthritis (non-septic), Grade 3 [6, 12]: 1 (3) Number of patients (%)
- Dose at which the DLT (non-septic arthritis) was noted [6, 12]: 16 mg/m^2/dose
- Patients with visual symptoms (nictalopia and blurred vision) ([7]; another phase I study, daily administration): 4 out of 20 and Four out of 20
- Patients who complained of blurred vision ([7]; daily administration, grade 1): one
- Patients who complained of nictalopia ([7]; daily administration, grade 1): Three
- Onset of visual event after beginning the drug ([7]; in most cases, daily administration): ≤ 2 weeks
- DLTs with daily administration [7]: 3 cases of grade 3 diarrhea, 1 case of grade 2 dehydration and grade 3 gastrointestinal hemorrhage and 1 case of grade 3 visual disturbance and grade 3 diarrhea
- Water solubility [8]: water soluble
- Oral bioavailability [9]: orally bioavailable
- Retinal damage in animal studies ([10]; canine model, reports, no reference given): irreversible retinal damage
- Retinal toxicity ([10]; dog, in vivo): evidence of retinal toxicity
- Grade 4 adverse events or deaths [11]: No grade 4 adverse events (AEs) were seen; also recorded: No drug-related grade 4 adverse events or deaths were seen
